Measurements from a melting point compilation (Tetko et al.; mined from patent text by program, amines drawn as free bases though some values may be those of a salt).
Residues, ends and D or L forms follow the SMILES beside them. *: point of attachment. Boc = CC(C)(C)OC(=O)*; Bn = c1ccc(C*)cc1

Row | Compound | melting point [°C]
1 | CCOC(=O)c1nc(CC)[nH]c1C(=O)OCC | 83 to 84
2 | COc1cc(C(C)C)c2c(c1)S(=O)(=O)N(COC(=O)c1c(Cl)ccc(O)c1Cl)C2=O | 152 to 154
3 | N#CSc1c(C2CC2)[nH]c(Cl)c1C#N | 123
4 | CC(=O)N1CCC(C)(C)c2cc(F)cc(CCN3CCN(c4noc5ccccc45)CC3)c21 | 112
5 | CC(C)(CO)CNC(=O)c1nn(C2CCCCO2)cc1NC(=O)c1ccccn1 (centres undefined) | 189 to 190
6 | CCOc1cnc2nc(S(=O)(=O)Cl)nn2c1 | 134 to 137
7 | Cc1nc(-c2ccc(N3CCOCC3)cc2)sc1-c1ccnc(Nc2ccc(N3CCOCC3)cc2)n1 | 273 to 274
8 | CCOc1nsc(S(C)(=O)=O)c1Cl | 85 to 87
9 | CCCCNc1cc(C(=O)O)cc(S(C)=O)c1Cl (centres undefined) | 158
10 | CNc1ccc(Cl)c(-c2cc(=O)c3c(O)cc(O)c(C4CCN(C)C4CO)c3o2)c1 (centres undefined) | 208 to 210
11 | CNC(=S)Nc1cc(C)ccc1N1CCOCC1 | 107
12 | O=C(O)c1cc(N2C(=O)CCC2=O)cc([N+](=O)[O-])c1 | 285 to 290
13 | CC(C)c1[nH]n(-c2c(Cl)cccc2Cl)c2nc(Cc3ccc(CC(=O)NCCN(C)C)cc3)nc(=O)c1-2 | 170 to 172
14 | Cc1nccn1N=Cc1ccc(N(C)C)cc1 | 166 to 167
15 | Cc1nc(C)c(Cl)c(NCc2nccc(SCCCCSCCn3c([N+](=O)[O-])cnc3C)c2C)n1 | 142 to 144
16 | CCCc1c(OCCCOc2ccc3ccc(OCC(=O)OC)cc3c2C(C)=O)ccc(C(C)=O)c1O | 104 to 107
17 | C=CCn1c(CCl)nc(C(C)C)c1Sc1cccc(Cl)c1 | 84 to 86
18 | CCNC(=O)Cn1nc(Nc2ccc3c(c2)OC(F)(F)O3)nc1-c1cc(C)nc(C)c1 | 242
19 | CCNC(=NS(=O)(=O)c1ccc(Cl)cc1)N1CC(c2ccccc2)C(c2ccc(Cl)cc2)=N1 (single isomer, unassigned; (-)) | 172 to 175
20 | CN(C)C=Nc1nc2c(nnn2C2CC(O)C(CO)O2)c(=O)[nH]1 (centres undefined) | 236
21 | CC(C)NS(=O)(=O)c1cc(Br)c(N)c(Br)c1 | 181 to 183
22 | Nc1ncc(-c2ccc3ncc(-c4ccc(CO)cc4)n3n2)cc1C(F)(F)F | 290 to 292
23 | CCCCCCCCCCNC(=O)c1ccc([N+](=O)[O-])cc1 | 89 to 91
24 | OCC(O)CN1CCN(c2nccs2)CC1 (centres undefined) | 138 to 139
25 | Cc1nc(N2CCN(Cc3ccc(C(F)(F)F)cc3)C2=O)sc1-c1ccno1 | 153 to 154

Row | Compound | melting point [°C]
26 | CC1CNc2c3c(nc4cccc(c24)O1)CCCC3 (centres undefined) | 169 to 170
27 | CCOC(=O)c1c(OCC)cc(C=O)cc1OCC | 117 to 119
28 | O=[N+]([O-])C=C1NCCCS1 | 76 to 78
29 | CCOC(=O)C1(c2ccc(Cl)cc2)OCC(c2ccc(F)cc2)(c2ccc(F)cc2)CO1 | 150
30 | Cc1cc(C2=NN=C(C(=O)O)Cc3cc4c(cc32)OCO4)ccc1[N+](=O)[O-] | 185 to 186
31 | CC(=O)NNC(=N)c1ncc([N+](=O)[O-])n1C | 294
32 | N#CNC(=NCCO[N+](=O)[O-])c1cncc(N)c1 | 121
33 | CC=COC(=O)c1c(S(=O)(=O)NC(=O)Nc2nc(C)cc(C)n2)c(C)nn1C | 180 to 183
34 | CCSC(N)=C(C#N)C(N)=S | 200 to 201
35 | Nc1ncnc2c1nc(Sc1cc3c(cc1Br)OCO3)n2CCCCCC(=O)NO | 160 to 169
36 | CCn1ncc2c(Cl)c3cccc(OC)c3nc21 | 168 to 170
37 | CC1C(c2ncc(Cl)cc2F)=NN(C)CS1=S (centres undefined) | 107 to 112
38 | C=Cc1cc(C)cc(C)c1C1=C(O)C2(CCN(OC)CC2)N(C)C1=O | 158 to 161
39 | CCN(C)c1nc2cc(NC(=O)c3c(C(=O)N4CCOCC4)cnn3C)ccn2n1 | 167 to 169
40 | CC(C)C[C@H](NC(=O)OC(C)(C)C)C(=O)NCCCC(c1ccc(F)cc1)c1ccc(F)cc1 | 50 to 55
41 | CCNC(=O)c1ccc(OCC(O)c2ccc3c(c2)C(C)(C)CCC3(C)C)cc1O (centres undefined) | 65 to 70
42 | CCn1c(=O)oc2cc(N)ccc21 | 72 to 74
43 | CCn1ncc2c1ncc1c(=O)[nH]c3nc(S(C)=O)nn3c12 (centres undefined) | > 300
44 | Cc1cc(CC(=O)N[C@H]2CC[C@H](CCN3CCN(c4nccc5c4CCO5)CC3)CC2)on1 | 172
45 | Oc1c(F)cc(Cn2cnnc2S)cc1F | 184 to 185
46 | CC(=O)ON1C(C)(C)CC(OC(=O)NCCCCCCNC(=O)OC2CC(C)(C)N(OC(C)=O)C(C)(C)C2)CC1(C)C | 158 to 163
47 | COc1c(Br)c(O)c(Br)c2nc(-c3ccc(O)cc3)oc12 | 246 to 248
48 | O=Cc1ccc(OC(F)F)c([N+](=O)[O-])c1 | 88 to 90
49 | O=C(O)Cc1n[nH]c2c(=O)[nH]c3cc(Cl)ccc3c(=O)c12 | 297 to 300
50 | CC(C)(C)OC(=O)N1CCNC(=O)C1Cc1ccc(F)cc1 (centres undefined) | 145 to 147

Results, then the compound that gave them:

Row | melting point [°C] | Compound
51 | 128 to 129 | COC(=O)C(CC(C)C)NC(=O)C(C)NC(=O)C(Cc1ccc(OCc2ccccc2)cc1)NC(=O)OC(C)(C)C (stereo not drawn) (Boc-Tyr(Bn)-Ala-Leu-OMe; configuration not given here)
52 | 99 to 102 | CCNc1cccc(NC(=O)C(=O)OCC)c1C#N
53 | 160 to 162 | Cc1cc(-n2c(C)ccc2-c2ccc(S(C)(=O)=O)cc2)ccc1-c1ccco1
54 | 101 to 103 | N#Cc1ccccc1NC(=O)C(=O)N1CCC(Cc2ccc(F)cc2)CC1
55 | 167 to 168 | c1ncn(CCc2ccc3c(c2)-c2[nH]nc(-c4ccsc4)c2C3)n1
56 | 127 to 129 | COC(=O)C1=C(Cl)C(=O)CC(c2ccc(Cl)c(OC)c2F)N1 (centres undefined)
57 | 172 to 175 | O=C(O)C1=Cc2cccc(-c3ccccc3)c2OC1C(F)(F)F (centres undefined)
58 | 154 to 155 | O=C1Nc2ccc(Cl)cc2C(C#Cc2ccccc2)(C(F)(F)Cl)O1 (racemic)
59 | 83 to 85 | COC(=O)c1cccc(-c2ccccc2C#N)c1
60 | 141 to 149 | Cc1sc(Cl)cc1C1(c2cccc(-c3cncnc3)c2)N=C(N)N(C)C1=O (centres undefined)
61 | 249 to 252 | O=C(Nc1ccc(-n2nc(C(F)(F)F)cc2C(F)(F)F)cc1)c1ccc(-n2cccc2)cc1
62 | 220 to 222 | CC12CC(O)C3(F)C(CCC4=CC(=O)C=CC43C)C1CC=C2SCOC(=O)c1ccccc1 (centres undefined)
63 | 188 to 189 | CS(=O)(=O)c1ccc(-c2cnn(CC(=O)c3ccc(C#N)cc3)c(=O)c2-c2ccc(F)cc2)cc1
64 | 43 to 45 | COC(=O)c1ccc(CCCOCCCCCCNCC(O)c2ccc(O)c(CO)c2)cc1 (centres undefined)
65 | 136 to 139 | O=C(C(=O)c1cccc(OCCCN2CCCC2)c1)c1cccc(OCCCN2CCCC2)c1
66 | 207 to 208 | O=S(=O)(Cc1ccccc1)N1CCC(c2ccc(O)cc2O)CC1
67 | 279 to 283 | Cn1ncc2[nH]c3ccc(Cc4cccc([N+](=O)[O-])c4)cc3c(=O)c21
68 | 144 to 146 | CCc1ccc(Oc2cnc[nH]c2=O)cc1
69 | 140 | COc1ccc2ccc(N3C(=O)c4ccccc4C3CC(=O)CCN(C)C)nc2n1 (centres undefined)
70 | 74 to 76 | Cc1ccc(-c2c(CO)n(CC(C)C)c(=O)c3ccc(OCc4ccccc4)cc23)cc1
71 | 108 to 110 | Cc1c(CC(=O)OCCCO)cc(-c2ccc(S(C)(=O)=O)cc2)n1-c1ccccc1
72 | 70 to 73 | CC(C)(c1ccccc1)C(S)C(=O)O (centres undefined)
73 | 118 to 120 | CC(C)OC(=O)c1nn(-c2ccc(Cl)cc2)c(=O)c2c(N)scc12
74 | 144 to 146 | COCc1cccc2oc(C(=O)Nc3ccc(-c4ccc(S(=O)(=O)N(C)C(C(=O)O)C(C)C)cc4)cc3)c(C)c12 (centres undefined)
75 | 150 | C=CCSc1cc(C(=O)O)cc(N)c1-c1ccccc1

Row | melting point [°C] | Compound
76 | 75 to 78 | CNC(=O)C(Cc1c[nH]c2ccccc12)NC(=O)C(C)(CC(C)C)c1ccc(Cl)cc1S (centres undefined)
77 | 143 to 144 | CC(C)Oc1cccc(N(C)C(=O)N(C)Cc2c(-c3ccccc3)c3cc(Cl)ccc3c(=O)n2C)c1
78 | 65 to 67 | c1ccc(CSc2cnccn2)cc1
79 | 119 to 122 | CN(Cc1ccc2c(Br)c(OCC(=O)O)ccc2c1)C(=O)c1oc2ccccc2c1CCc1ccccc1
80 | 75 to 77 | CC(C)Nc1nccc(C(=O)C(=O)c2ccc(F)cc2)n1
81 | 160 | CC(C)c1cccc(S(=O)(=O)n2c(CCCC(=O)O)cc3cc(C(F)(F)F)ccc32)c1
82 | 255 to 257 | Cc1nccc2[nH]c(=O)c(C(=O)O)cc12
83 | 160 to 162 | CCOC(=O)C(CC)Oc1cccc(N2CCN(c3ccncc3)CC2)c1 (centres undefined)
84 | 255 to 258 | O=c1[nH]c2sccc2c2c([N+](=O)[O-])cccc12
85 | 145 to 148 | Nc1ccccc1-c1ncn[nH]1
86 | 191 | COC(=O)c1c(C(=O)O)n(-c2ccc(OC(C)C)cc2)c2ccc(Oc3ccc(C(F)(F)F)cc3)cc12
87 | 228 to 230 | CCn1ncc2c(NCC3CC3)c3ccccc3nc21
88 | 172 to 173 | CN(C)CC(=O)NN=Cc1c(-c2ccccc2)nn2ccccc12
89 | 74 to 76 | C#CCOC1c2ccccc2Oc2ccccc21
90 | 96.5 to 99.5 | CCCCc1ccccc1NC(C)=O
91 | 234 to 236 | CSc1ncc2cc(Oc3ccccc3F)c(=O)n(C)c2n1
92 | 120 to 122 | CNc1ccc(C(=O)OC)c(OC)n1
93 | 240 | O=C(NN=Cc1ccnc2ccccc12)c1ccc(C(F)(F)F)cc1
94 | 70 to 72 | CCOC(=O)c1cc2ccccc2nc1C
95 | 63 to 66.5 | Nc1ccc(Sc2ccccc2)cc1C(F)(F)F
96 | 211 to 212 | COc1cc2ncnc(N3CCN(C(=O)NCc4ccc(Br)cc4)CC3)c2cc1OC
97 | 212 to 214 | CNc1nc(-c2cccc(NC(=O)c3ccccc3O)c2)c2cc(OC)c(OC)cc2n1
98 | 66 to 68 | O=C(c1ccccc1)c1cncc(Br)c1
99 | 131 to 132 | COC(=O)c1cc(C)c(-c2cccc(OCc3ccc(COC(=O)c4ccccc4)c(COC(=O)c4ccccc4)c3)c2C)c(C)c1
